Results taken from patent publication US20260217732A1, “WRN INHIBITOR” (SUZHOU PUHE BIOPHARMA CO., LTD., priority 2022, published 2026).

Key:
[1] = tested on: SW48 (MSI-H) colorectal cancer tumor cells; experiment: In vivo efficacy, SW48 xenograft in nude mice; set-up: species or system BALB/c nude mice; conditions: QD, oral; for TGI: 21 days; for Tumor Volume D 1: day 1; for Tumor volume D 21: day 21
Procedure: In vivo efficacy experiment in BALB/C nude mice. Details are as follows:
SW48 (MSI-H) colorectal cancer tumor cells were cultured (in an L15 medium with 10% fetal bovine serum), and inoculated into 6-8 week old female BALB/c nude mice (with body weight of about 20 g). All the mice were inoculated subcutaneously. The mice were raised in an SPF-grade experimental environment, and all the mice were free to take commercially certified standard diets. When the tumors grew to an average volume of about 160 mm^3 in mice, the test compound was orally administered daily. […] The tumor volume was measured with a two-dimensional caliper three times a week, and the animals were weighed every day. […] The volume calculation formula is: V=1/2a*b^2, where a represents the long diameter of the tumor and b represents the short diameter of the tumor.

in vivo = conditions: female, CD1, mouse
Procedure: (§1) Mouse Pharmacokinetic Evaluation Experiment
(§2) CD1 female mice were used as test animals to be administered orally/intravenously (with oral dosage of 10 mg/kg or intravenous dosage of 2 mg/kg).
(§3) Experimental scheme: The oral administration group comprised 3 mice per group (Solvent: 10% Hβ-CD-pH7.4), and the intravenous group comprised 3 mice per group. […] The blood concentration in the plasma of mice was determined using the LC/MS/MS method after the oral or intravenous administration, respectively, and the collected data were calculated using the AB Sciex QTRAP 6500 software.

[2] = female, CD1, mouse, in vivo
Procedure: as §1, §2, §3

[3] = tested on: HT-29 colorectal cancer cells; experiment: 2D antiproliferation on MSS HT-29 cells, CTG, 5 days; format: cell-based; conditions: Homo sapiens, 120 h, HT-29 MSS
Outline: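 HT-29 (MSS) colorectal cells in McCoy's 5A with 10% FBS were exposed to a range of compound concentrations for 5 days at 37° C, 5% CO2. Viability was read as CellTiter-Glo luminescence after 30 min, which reflects ATP content.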

[4] = tested on: SW48 colorectal cancer cells; experiment: 2D antiproliferation on MSI-H SW48 cells, CTG, 5 days; format: cell-based; conditions: Homo sapiens, 120 h; SW48 MSI-H, 5 days
Outline: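 MSI-H SW48 colorectal cells in RPMI1640 with 10% FBS exposed to graded compound concentrations for 5 days at 37 °C, 5% CO2. Viability read as CellTiter-Glo ATP luminescence after 30 min.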

WRN enzyme = target: T1, WRN enzyme (Homo sapiens, UniProt Q14191); experiment: WRN helicase hydrolysis (unwinding) of double-stranded DNA, fluorescence assay; format: biochemical; conditions: 30 min pre-incubation, 60 min reaction
T1 construct: 10 μL (2×) of WRN enzyme solution was added
T1 sequence (Q14191 whole entry): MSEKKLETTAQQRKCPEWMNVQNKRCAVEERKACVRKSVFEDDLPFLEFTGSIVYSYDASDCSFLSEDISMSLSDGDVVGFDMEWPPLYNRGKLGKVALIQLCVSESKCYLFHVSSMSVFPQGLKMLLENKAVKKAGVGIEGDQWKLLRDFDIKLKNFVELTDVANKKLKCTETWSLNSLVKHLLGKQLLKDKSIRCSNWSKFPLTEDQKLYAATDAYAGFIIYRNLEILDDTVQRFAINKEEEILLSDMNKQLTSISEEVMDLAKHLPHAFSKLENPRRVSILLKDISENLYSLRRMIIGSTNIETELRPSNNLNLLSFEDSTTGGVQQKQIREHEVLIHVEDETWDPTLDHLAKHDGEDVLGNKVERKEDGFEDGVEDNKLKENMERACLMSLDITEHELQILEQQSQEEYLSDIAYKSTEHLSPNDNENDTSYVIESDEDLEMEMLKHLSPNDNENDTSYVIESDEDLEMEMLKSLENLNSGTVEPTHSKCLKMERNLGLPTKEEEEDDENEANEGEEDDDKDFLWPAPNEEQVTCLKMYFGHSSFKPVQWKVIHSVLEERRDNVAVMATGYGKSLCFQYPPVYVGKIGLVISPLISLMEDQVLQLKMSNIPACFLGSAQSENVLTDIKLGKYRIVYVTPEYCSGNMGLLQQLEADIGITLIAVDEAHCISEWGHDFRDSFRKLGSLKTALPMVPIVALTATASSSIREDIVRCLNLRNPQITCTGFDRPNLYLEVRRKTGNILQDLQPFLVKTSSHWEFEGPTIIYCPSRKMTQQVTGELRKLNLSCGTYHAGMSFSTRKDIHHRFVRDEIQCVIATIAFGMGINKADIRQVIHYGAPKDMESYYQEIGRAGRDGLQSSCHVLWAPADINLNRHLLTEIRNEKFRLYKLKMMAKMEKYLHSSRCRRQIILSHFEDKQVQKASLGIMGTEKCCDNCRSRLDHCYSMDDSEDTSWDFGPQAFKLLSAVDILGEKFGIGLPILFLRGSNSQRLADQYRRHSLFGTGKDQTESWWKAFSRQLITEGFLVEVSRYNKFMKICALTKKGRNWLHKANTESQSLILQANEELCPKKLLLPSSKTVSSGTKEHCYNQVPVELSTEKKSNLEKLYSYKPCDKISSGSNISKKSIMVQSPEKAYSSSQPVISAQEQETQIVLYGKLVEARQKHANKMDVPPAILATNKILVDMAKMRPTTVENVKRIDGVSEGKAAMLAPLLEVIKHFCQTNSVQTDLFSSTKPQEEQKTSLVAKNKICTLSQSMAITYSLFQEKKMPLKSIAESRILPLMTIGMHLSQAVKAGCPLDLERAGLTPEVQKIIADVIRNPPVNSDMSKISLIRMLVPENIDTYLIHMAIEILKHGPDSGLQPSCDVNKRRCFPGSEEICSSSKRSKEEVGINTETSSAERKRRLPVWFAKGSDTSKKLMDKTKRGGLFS
Procedure: • The molecules of the present disclosure were tested for their activities on the WRN helicase hydrolysis of double-stranded DNA (Table 1).
A working solution to be tested and a buffer were prepared. The compound to be tested was dissolved in DMSO and subjected to 4× dilution (with 10 μM final concentration as the starting concentration). 0.2 μL of the solution of the compound to be tested was added to the 384-well plate and 10 μL (2×) of WRN enzyme solution was added. The solution was incubated in the dark for 30 minutes. Then, 10 μL of a substrate detection solution containing double-stranded DNA was added to initiate the reaction (the DNA has a length of 19 bp, and labeled with TAMRA and BHQ2 at 3′ and 5′-ends, respectively). The solution was incubated at room temperature for 60 minutes. The inhibitory activities (IC50) against WRN enzyme were calculated based on the change of Ex530/Em590 in the blank group (DMSO) and the compound group.

[5] = Caco-2 membrane permeability assay; format: in vitro ADME; conditions: human
Procedure: Membrane Permeability Evaluation Experiments: Caco-2 Assays
The molecules of the present disclosure were evaluated for their membrane permeability. […] Data would be used for apparent permeability (Papp).
wherein VA is the volume of the receptor pore (unit: mL), Area is the surface area of the membrane (0.143 cm^2 for Transwell-96 well permeable scaffolds), and time is the total transport time (unit: seconds).

[6] = Caco-2, apical pH 6.5, basolateral pH 7.4

AUC(0-t) (in vivo; iv, 2 mg/kg) | C0 (in vivo; iv, 2 mg/kg) | clearance (in vivo; iv, 2 mg/kg) | half-life (in vivo; iv, 2 mg/kg) | AUC(0-t) (in vivo; po, 10 mg/kg) | Cmax (in vivo; po, 10 mg/kg) | Tmax (in vivo; po, 10 mg/kg) | half-life (in vivo; po, 10 mg/kg) | F [2] | IC50 [4] | SMILES | also measured
1190 ng·h/mL | 2520 ng/mL | 28.1 mL/min/kg | 1.3 h | 801 ng·h/mL | 584 ng/mL | 0.5 h | 1.4 h | 14% | – | CCc1c(N2CCN(C(=O)c3ncccc3O)CC2)c(=O)n2nc(-c3cccnc3)nc2n1CC(=O)Nc1ccc(C(F)(F)F)cc1C [A1, reference compound] | TGI ([1]; 20 mg/kg): 16%; Tumor Volume D 1 ([1]; 20 mg/kg): 162 mm^3; Tumor volume D 21 ([1]; 20 mg/kg): 1672 mm^3; TGI ([1]; 50 mg/kg): 50%; Tumor Volume D 1 ([1]; 50 mg/kg): 160 mm^3; Tumor volume D 21 ([1]; 50 mg/kg): 1065 mm^3
2970 ng·h/mL | 5260 ng/mL | 11.2 mL/min/kg | 0.9 h | 6070 ng·h/mL | 2850 ng/mL | 0.25 h | 1.3 h | 41% | 39 nM | CCc1c(N2CCN(C(=O)c3ncnc(C)c3O)CC2)c(=O)n2nc(-c3cc4c(s3)COC4)nc2n1CC(=O)Nc1ccc(Br)c2ccoc12 [P59] | IC50 [3]: > 10000 nM; IC50 (WRN enzyme): 1.5 nM
– | – | – | – | – | – | – | – | – | 37 nM | CCc1c(N2CCN(C(=O)c3ncnc(C)c3O)CC2)c(=O)n2nc(-c3cc4c(s3)COC4)nc2n1CC(=O)Nc1ccc(C(F)(F)F)c(C)c1C [P62] | efflux ratio ([5]; Caco-2): 11.6; Papp A→B [5, 6]: 1.54 ×10⁻⁶ cm/s; Papp B→A [5, 6]: 17.9 ×10⁻⁶ cm/s
